Data reported in ChEMBL document CHEMBL1129218, “Bisbenzamidine isoxazoline derivatives as factor Xa inhibitors” (Bioorg Med Chem Lett, 1997).

biological target: Coagulation factor X (Homo sapiens, UniProt P00742); assay: Inhibition of Factor Xa
Sequence (P00742 41-179 limits assumed): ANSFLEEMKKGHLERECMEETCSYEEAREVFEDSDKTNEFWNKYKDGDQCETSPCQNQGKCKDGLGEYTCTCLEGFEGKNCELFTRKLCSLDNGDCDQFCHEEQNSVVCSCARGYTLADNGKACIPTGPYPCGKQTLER
Sequence (P00742 235-488 limits assumed): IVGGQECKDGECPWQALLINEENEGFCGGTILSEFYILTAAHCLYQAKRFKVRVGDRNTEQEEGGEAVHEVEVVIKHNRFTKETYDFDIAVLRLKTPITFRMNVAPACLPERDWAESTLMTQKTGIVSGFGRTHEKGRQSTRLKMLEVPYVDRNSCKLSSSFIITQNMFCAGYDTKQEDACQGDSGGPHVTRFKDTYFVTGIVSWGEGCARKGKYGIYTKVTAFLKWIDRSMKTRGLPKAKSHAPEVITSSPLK

Compound	Ki [nM]
N=C(N)c1ccc(NC(=O)CC2CC(c3ccc(C(=N)N)cc3)=NO2)cc1 (stereo unspecified)	1700
N=C(N)c1ccc(C2=NOC(CC(=O)Nc3cccc(C(=N)N)c3)C2)cc1 (stereo unspecified)	870
N=C(N)c1cccc(NC(=O)CC2CC(c3cccc(C(=N)N)c3)=NO2)c1 (stereo unspecified)	1800
COC(=O)CC1(C(=O)Nc2cccc(C(=N)N)c2)CC(c2cccc(C(=N)N)c2)=NO1 (stereo unspecified)	800
N=C(N)c1ccc(/C=C2/CCCC/C(=C\c3ccc(C(=N)N)cc3)C2=O)cc1	13
COC(=O)CC1(C(=O)Nc2cccc(C(=N)N)c2)CC(c2ccc(C(=N)N)cc2)=NO1 (stereo unspecified)	117
N=C(N)c1ccc(NC(=O)CC2CC(c3cccc(C(=N)N)c3)=NO2)cc1 (stereo unspecified)	1400
COC(=O)CNC(=O)CC1(C(=O)Nc2ccc(C(=N)N)cc2)CC(c2cccc(C(=N)N)c2)=NO1 (stereo unspecified)	18
N=C(N)c1ccc(NC(=O)C2CC(c3cccc(C(=N)N)c3)=NO2)cc1 (stereo unspecified)	270
N=C(N)c1ccc(NC(=O)C2(CC(=O)O)CC(c3cccc(C(=N)N)c3)=NO2)cc1 (stereo unspecified)	143

species: Rattus norvegicus; assay: Compound was tested for inhibitory dose which produced 50% inhibition of thrombus formation in a rat vena cava thrombosis model; format: functional

Compound	ID50 [mg/kg/h]
COC(=O)CC1(C(=O)Nc2ccc(C(=N)N)cc2)CC(c2cccc(C(=N)N)c2)=NO1 (stereo unspecified)	1.6

test system: Rattus norvegicus; assay: Percent inhibition for thrombus formation after intravenous infusion at 1 mg/kg/h in a rat vena cava thrombosis model; format: functional

Compound	inhibition in vivo at 1 mg/kg/h [%]
COC(=O)CC1(C(=O)Nc2ccc(C(=N)N)cc2)CC(c2cccc(C(=N)N)c2)=NO1 (stereo unspecified)	40

test system: Rattus norvegicus; assay: Percent inhibition for thrombus formation after intravenous infusion at 5 mg/kg/h in a rat vena cava thrombosis model; format: functional

Compound	inhibition in vivo at 5 mg/kg/h [%]
COC(=O)CC1(C(=O)Nc2ccc(C(=N)N)cc2)CC(c2cccc(C(=N)N)c2)=NO1 (stereo unspecified)	80

biological target: Prothrombin (Homo sapiens, UniProt P00734); assay: The compound was evaluated for inhibitory activity against Thrombin

Compound	Ki [nM]
N=C(N)c1ccc(NC(=O)CC2CC(c3ccc(C(=N)N)cc3)=NO2)cc1 (stereo unspecified)	2200
N=C(N)c1ccc(C2=NOC(CC(=O)Nc3cccc(C(=N)N)c3)C2)cc1 (stereo unspecified)	2200
N=C(N)c1cccc(NC(=O)CC2CC(c3cccc(C(=N)N)c3)=NO2)c1 (stereo unspecified)	11200
COC(=O)CC1(C(=O)Nc2cccc(C(=N)N)c2)CC(c2cccc(C(=N)N)c2)=NO1 (stereo unspecified)	11800
COC(=O)CC1(C(=O)Nc2cccc(C(=N)N)c2)CC(c2ccc(C(=N)N)cc2)=NO1 (stereo unspecified)	14100
N=C(N)c1ccc(NC(=O)CC2CC(c3cccc(C(=N)N)c3)=NO2)cc1 (stereo unspecified)	11100
COC(=O)CC1(C(=O)Nc2ccc(C(=N)N)cc2)CC(c2cccc(C(=N)N)c2)=NO1 (stereo unspecified)	16000
COC(=O)CNC(=O)CC1(C(=O)Nc2ccc(C(=N)N)cc2)CC(c2cccc(C(=N)N)c2)=NO1 (stereo unspecified)	3100
N=C(N)c1ccc(NC(=O)C2CC(c3cccc(C(=N)N)c3)=NO2)cc1 (stereo unspecified)	16000
N=C(N)c1ccc(NC(=O)C2(CC(=O)O)CC(c3cccc(C(=N)N)c3)=NO2)cc1 (stereo unspecified)	> 21000

biological target: Serine protease 1 (Homo sapiens, UniProt P07477); assay: The compound was evaluated for inhibitory activity against Trypsin
Sequence (P07477 whole entry): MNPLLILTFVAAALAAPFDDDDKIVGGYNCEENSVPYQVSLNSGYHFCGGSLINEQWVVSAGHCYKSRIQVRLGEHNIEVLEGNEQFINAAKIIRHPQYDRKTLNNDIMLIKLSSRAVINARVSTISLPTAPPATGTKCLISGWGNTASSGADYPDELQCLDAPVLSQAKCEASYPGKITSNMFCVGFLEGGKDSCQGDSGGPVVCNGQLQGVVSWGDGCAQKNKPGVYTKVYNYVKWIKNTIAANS

Compound	Ki [nM]
N=C(N)c1ccc(C2=NOC(CC(=O)Nc3cccc(C(=N)N)c3)C2)cc1 (stereo unspecified)	510
N=C(N)c1cccc(NC(=O)CC2CC(c3cccc(C(=N)N)c3)=NO2)c1 (stereo unspecified)	> 1200
COC(=O)CC1(C(=O)Nc2cccc(C(=N)N)c2)CC(c2cccc(C(=N)N)c2)=NO1 (stereo unspecified)	230
COC(=O)CC1(C(=O)Nc2cccc(C(=N)N)c2)CC(c2ccc(C(=N)N)cc2)=NO1 (stereo unspecified)	> 1200
COC(=O)CC1(C(=O)Nc2ccc(C(=N)N)cc2)CC(c2cccc(C(=N)N)c2)=NO1 (stereo unspecified)	480
COC(=O)CNC(=O)CC1(C(=O)Nc2ccc(C(=N)N)cc2)CC(c2cccc(C(=N)N)c2)=NO1 (stereo unspecified)	420
N=C(N)c1ccc(NC(=O)C2CC(c3cccc(C(=N)N)c3)=NO2)cc1 (stereo unspecified)	700
N=C(N)c1ccc(NC(=O)C2(CC(=O)O)CC(c3cccc(C(=N)N)c3)=NO2)cc1 (stereo unspecified)	> 1200
